Laboratory results reported in US9212182B2, “Bicyclic sulfonamide compounds as sodium channel inhibitors” (AMGEN INC., priority 2013, dated 2015).

Target: Nav 1.7 (Homo sapiens (Human), UniProt Q15858)
Test: in-vitro Nav 1.7 PX (IC50)
Assay type: cell-based
Settings: in-vitro Nav 1.7 PX data

Chain of Nav 1.7 (Q15858 whole entry): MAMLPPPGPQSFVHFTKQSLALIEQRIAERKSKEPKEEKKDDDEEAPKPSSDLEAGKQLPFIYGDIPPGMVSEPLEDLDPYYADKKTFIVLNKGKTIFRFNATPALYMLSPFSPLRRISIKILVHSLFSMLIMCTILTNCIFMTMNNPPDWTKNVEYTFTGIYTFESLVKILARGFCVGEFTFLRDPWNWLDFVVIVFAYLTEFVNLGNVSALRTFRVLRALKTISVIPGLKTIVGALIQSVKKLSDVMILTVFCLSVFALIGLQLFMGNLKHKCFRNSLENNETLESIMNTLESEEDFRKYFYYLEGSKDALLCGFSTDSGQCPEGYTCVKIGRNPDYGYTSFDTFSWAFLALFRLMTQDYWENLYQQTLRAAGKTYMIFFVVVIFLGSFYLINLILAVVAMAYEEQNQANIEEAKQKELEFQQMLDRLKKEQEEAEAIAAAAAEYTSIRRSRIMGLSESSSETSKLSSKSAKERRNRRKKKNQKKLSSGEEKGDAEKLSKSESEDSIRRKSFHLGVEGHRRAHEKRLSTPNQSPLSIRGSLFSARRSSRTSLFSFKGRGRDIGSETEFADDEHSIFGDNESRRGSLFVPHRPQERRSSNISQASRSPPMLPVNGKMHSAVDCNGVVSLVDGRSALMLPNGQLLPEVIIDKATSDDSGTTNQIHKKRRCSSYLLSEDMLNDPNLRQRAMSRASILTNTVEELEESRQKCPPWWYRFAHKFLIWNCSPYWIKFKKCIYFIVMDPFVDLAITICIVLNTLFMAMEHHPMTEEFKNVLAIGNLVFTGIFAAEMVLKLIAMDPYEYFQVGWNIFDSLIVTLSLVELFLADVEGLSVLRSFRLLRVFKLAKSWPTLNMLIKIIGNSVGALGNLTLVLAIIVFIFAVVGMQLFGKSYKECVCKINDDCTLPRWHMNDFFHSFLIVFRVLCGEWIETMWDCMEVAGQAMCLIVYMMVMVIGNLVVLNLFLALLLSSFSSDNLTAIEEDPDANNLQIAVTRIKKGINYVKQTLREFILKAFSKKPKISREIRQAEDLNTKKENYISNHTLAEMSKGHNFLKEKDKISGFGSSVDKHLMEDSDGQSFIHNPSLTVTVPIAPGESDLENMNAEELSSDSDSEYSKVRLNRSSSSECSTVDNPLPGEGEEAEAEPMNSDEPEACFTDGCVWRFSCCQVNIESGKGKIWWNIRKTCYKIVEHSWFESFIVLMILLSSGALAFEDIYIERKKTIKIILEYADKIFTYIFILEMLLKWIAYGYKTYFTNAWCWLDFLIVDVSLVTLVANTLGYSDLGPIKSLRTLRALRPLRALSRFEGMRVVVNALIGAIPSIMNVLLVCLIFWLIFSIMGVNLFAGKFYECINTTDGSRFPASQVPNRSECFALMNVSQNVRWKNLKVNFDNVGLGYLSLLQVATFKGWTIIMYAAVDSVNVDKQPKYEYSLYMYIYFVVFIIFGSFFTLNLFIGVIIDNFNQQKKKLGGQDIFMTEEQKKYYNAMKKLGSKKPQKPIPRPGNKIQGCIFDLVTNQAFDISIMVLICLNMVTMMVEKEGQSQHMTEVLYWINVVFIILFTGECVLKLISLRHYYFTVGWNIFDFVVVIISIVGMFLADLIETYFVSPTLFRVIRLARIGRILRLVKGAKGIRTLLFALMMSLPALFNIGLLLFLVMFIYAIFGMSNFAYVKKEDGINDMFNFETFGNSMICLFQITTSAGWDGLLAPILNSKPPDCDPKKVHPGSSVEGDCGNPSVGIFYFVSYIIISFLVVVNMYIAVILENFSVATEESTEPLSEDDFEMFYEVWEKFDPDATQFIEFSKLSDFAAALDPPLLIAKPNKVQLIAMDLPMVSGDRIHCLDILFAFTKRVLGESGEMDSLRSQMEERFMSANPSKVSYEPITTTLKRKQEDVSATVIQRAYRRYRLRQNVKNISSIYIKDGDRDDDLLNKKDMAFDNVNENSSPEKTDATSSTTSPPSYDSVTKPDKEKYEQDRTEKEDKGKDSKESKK

| Compound | IC50 [nM] |
| --- | --- |
| COc1cc(-c2ccc(Cl)cc2)c(F)cc1-n1c(=O)ccc2cc(S(=O)(=O)Nc3ccnc(C)n3)ccc21 [Example 751, 1-(4′-chloro-2-fluoro-5-methoxy-4-biphenylyl)-N-(2-methyl-4-pyrimidinyl)-2-oxo-1,2-dihydro-6-quinolinesulfonamide] | 67 |
| COc1cc(-c2ccc(Cl)cc2)c(F)cc1-n1c(=O)ccc2cc(S(=O)(=O)Nc3cc(C)ncn3)ccc21 [Example 752, 1-(4′-chloro-2-fluoro-5-methoxy-4-biphenylyl)-N-(6-methyl-4-pyrimidinyl)-2-oxo-1,2-dihydro-6-quinolinesulfonamide] | 20 |
| COc1cc(-c2ccc(Cl)cc2)c(F)cc1-n1c(=O)ccc2cc(S(=O)(=O)Nc3ncco3)ccc21 [Example 753, 1-(4′-chloro-2-fluoro-5-methoxy-4-biphenylyl)-N-1,3-oxazol-2-yl-2-oxo-1,2-dihydro-6-quinolinesulfonamide] | 37 |
| COc1cc(-c2ccc(C#N)cc2)c(F)cc1-n1c(=O)ccc2cc(S(=O)(=O)Nc3ccon3)ccc21 [Example 754, 1-(4′-cyano-2-fluoro-5-methoxy-4-biphenylyl)-N-3-isoxazolyl-2-oxo-1,2-dihydro-6-quinolinesulfonamide] | 132 |
| COc1cc(-c2ccc(Cl)cc2C(N)=O)c(F)cc1-n1c(=O)ccc2cc(S(=O)(=O)Nc3ccon3)ccc21 [Example 755, 4-chloro-2′-fluoro-4′-(6-(3-isoxazolylsulfamoyl)-2-oxo-1(2H)-quinolinyl)-5′-methoxy-2-biphenylcarboxamide] | 351 |
| COc1cc(-c2ccc(C3CC3)cc2)c(F)cc1-n1c(=O)ccc2cc(S(=O)(=O)Nc3ccon3)ccc21 [Example 757, 1-(4′-cyclopropyl-2-fluoro-5-methoxy-4-biphenylyl)-N-3-isoxazolyl-2-oxo-1,2-dihydro-6-quinolinesulfonamide] | 35 |
| COc1cc(-c2cc(Cl)ccc2C#N)c(F)cc1-n1c(=O)ccc2cc(S(=O)(=O)Nc3ccon3)ccc21 [Example 758, 1-(5′-chloro-2′-cyano-2-fluoro-5-methoxy-4-biphenylyl)-N-3-isoxazolyl-2-oxo-1,2-dihydro-6-quinolinesulfonamide] | 20 |
| COc1cc(-c2cc(OC)c(-n3c(=O)ccc4cc(S(=O)(=O)Nc5ccon5)ccc43)cc2F)c(Cl)cn1 [Example 759, 1-(4-(5-chloro-2-methoxy-4-pyridinyl)-5-fluoro-2-methoxyphenyl)-N-3-isoxazolyl-2-oxo-1,2-dihydro-6-quinolinesulfonamide] | 100 |
| COc1cc(-c2ccc(OC(F)(F)F)cc2)c(F)cc1-n1c(=O)ccc2cc(S(=O)(=O)Nc3ccon3)ccc21 [Example 760, 1-(2-fluoro-5-methoxy-4′-(trifluoromethoxy)-4-biphenylyl)-N-3-isoxazolyl-2-oxo-1,2-dihydro-6-quinolinesulfonamide] | 15 |
| COc1cc(-c2ccc(C(F)(F)F)nc2)c(F)cc1-n1c(=O)ccc2cc(S(=O)(=O)Nc3ccon3)ccc21 [Example 761, 1-(5-fluoro-2-methoxy-4-(6-(trifluoromethyl)-3-pyridinyl)phenyl)-N-3-isoxazolyl-2-oxo-1,2-dihydro-6-quinolinesulfonamide] | 120 |
| COc1cc(-c2ccnc(C(F)(F)F)c2)c(F)cc1-n1c(=O)ccc2cc(S(=O)(=O)Nc3ccon3)ccc21 [Example 762, 1-(5-fluoro-2-methoxy-4-(2-(trifluoromethyl)-4-pyridinyl)phenyl)-N-3-isoxazolyl-2-oxo-1,2-dihydro-6-quinolinesulfonamide] | 41 |
| COc1cc(-c2ccc(OC(F)F)cc2)c(F)cc1-n1c(=O)ccc2cc(S(=O)(=O)Nc3ccon3)ccc21 [Example 763, 1-(4′-(difluoromethoxy)-2-fluoro-5-methoxy-4-biphenylyl)-N-3-isoxazolyl-2-oxo-1,2-dihydro-6-quinolinesulfonamide] | 30 |
| COc1cc(-c2ccc(Cl)cc2)ccc1-n1c(=O)ccc2cc(S(=O)(=O)Nc3ncc(F)cn3)ccc21 [Example 764, 1-(4′-chloro-3-methoxy-4-biphenylyl)-N-(5-fluoro-2-pyrimidinyl)-2-oxo-1,2-dihydro-6-quinolinesulfonamide] | 40 |
| COc1cc(-c2ccc(Cl)cc2)ccc1-n1c(=O)ccc2cc(S(=O)(=O)Nc3cccnn3)ccc21 [Example 765, 1-(4′-chloro-3-methoxy-4-biphenylyl)-2-oxo-N-3-pyridazinyl-1,2-dihydro-6-quinolinesulfonamide] | 112 |
| COc1cc(-c2ccc(Cl)cc2)ccc1-n1c(=O)ccc2cc(S(=O)(=O)Nc3ncco3)ccc21 [Example 766, 1-(4′-chloro-3-methoxy-4-biphenylyl)-N-1,3-oxazol-2-yl-2-oxo-1,2-dihydro-6-quinolinesulfonamide] | 37 |
| COc1cc(-c2ccc(Cl)cc2)ccc1-n1c(=O)ccc2cc(S(=O)(=O)Nc3cc(C)ncn3)ccc21 [Example 767, 1-(4′-chloro-3-methoxy-4-biphenylyl)-N-(6-methyl-4-pyrimidinyl)-2-oxo-1,2-dihydro-6-quinolinesulfonamide] | 54 |

| Compound | IC50 [nM] |
| --- | --- |
| COc1cc(-c2ccc(Cl)cc2)ccc1-n1c(=O)ccc2cc(S(=O)(=O)Nc3ccnc(C)n3)ccc21 [Example 768, 1-(4′-chloro-3-methoxy-4-biphenylyl)-N-(2-methyl-4-pyrimidinyl)-2-oxo-1,2-dihydro-6-quinolinesulfonamide] | 52 |
| COc1cc(-c2ccc(F)cc2)c(F)cc1-n1c(=O)ccc2cc(S(=O)(=O)Nc3ncc(F)cn3)ccc21 [Example 769, 1-(2,4′-difluoro-5-methoxy-4-biphenylyl)-N-(5-fluoro-2-pyrimidinyl)-2-oxo-1,2-dihydro-6-quinolinesulfonamide] | 100 |
| COc1cc(-c2ccc(F)cc2)c(F)cc1-n1c(=O)ccc2cc(S(=O)(=O)Nc3cccnn3)ccc21 [Example 770, 1-(2,4′-difluoro-5-methoxy-4-biphenylyl)-2-oxo-N-3-pyridazinyl-1,2-dihydro-6-quinolinesulfonamide] | 33 |
| COc1cc(-c2ccc(F)cc2)c(F)cc1-n1c(=O)ccc2cc(S(=O)(=O)Nc3ncco3)ccc21 [Example 771, 1-(2,4′-difluoro-5-methoxy-4-biphenylyl)-N-1,3-oxazol-2-yl-2-oxo-1,2-dihydro-6-quinolinesulfonamide] | 53 |
| COc1cc(-c2ccc(F)cc2)c(F)cc1-n1c(=O)ccc2cc(S(=O)(=O)Nc3cc(C)ncn3)ccc21 [Example 772, 1-(2,4′-difluoro-5-methoxy-4-biphenylyl)-N-(6-methyl-4-pyrimidinyl)-2-oxo-1,2-dihydro-6-quinolinesulfonamide] | 232 |
| COc1cc(-c2ccc(F)cc2)c(F)cc1-n1c(=O)ccc2cc(S(=O)(=O)Nc3ccnc(C)n3)ccc21 [Example 773, 1-(2,4′-difluoro-5-methoxy-4-biphenylyl)-N-(2-methyl-4-pyrimidinyl)-2-oxo-1,2-dihydro-6-quinolinesulfonamide] | 274 |
| COc1cc(-c2cc(Cl)cnc2OC)c(F)cc1-n1c(=O)ccc2cc(S(=O)(=O)Nc3ncc(F)cn3)ccc21 [Example 774, 1-(4-(5-chloro-2-methoxy-3-pyridinyl)-5-fluoro-2-methoxyphenyl)-N-(5-fluoro-2-pyrimidinyl)-2-oxo-1,2-dihydro-6-quinolinesulfonamide] | 48 |
| COc1cc(-c2cc(Cl)cnc2OC)c(F)cc1-n1c(=O)ccc2cc(S(=O)(=O)Nc3cccnn3)ccc21 [Example 775, 1-(4-(5-chloro-2-methoxy-3-pyridinyl)-5-fluoro-2-methoxyphenyl)-2-oxo-N-3-pyridazinyl-1,2-dihydro-6-quinolinesulfonamide] | 47 |
| COc1cc(-c2cc(Cl)cnc2OC)c(F)cc1-n1c(=O)ccc2cc(S(=O)(=O)Nc3ncco3)ccc21 [Example 776, 1-(4-(5-chloro-2-methoxy-3-pyridinyl)-5-fluoro-2-methoxyphenyl)-N-1,3-oxazol-2-yl-2-oxo-1,2-dihydro-6-quinolinesulfonamide] | 54 |
| COc1cc(-c2cc(Cl)cnc2OC)c(F)cc1-n1c(=O)ccc2cc(S(=O)(=O)Nc3cc(C)ncn3)ccc21 [Example 777, 1-(4-(5-chloro-2-methoxy-3-pyridinyl)-5-fluoro-2-methoxyphenyl)-N-(6-methyl-4-pyrimidinyl)-2-oxo-1,2-dihydro-6-quinolinesulfonamide] | 103 |
| COc1cc(-c2cc(Cl)cnc2OC)c(F)cc1-n1c(=O)ccc2cc(S(=O)(=O)Nc3ccnc(C)n3)ccc21 [Example 778, 1-(4-(5-chloro-2-methoxy-3-pyridinyl)-5-fluoro-2-methoxyphenyl)-N-(2-methyl-4-pyrimidinyl)-2-oxo-1,2-dihydro-6-quinolinesulfonamide] | 111 |
| COc1cc(-c2cccc(OC(C)C)c2)ccc1-n1c(=O)ccc2cc(S(=O)(=O)Nc3ccon3)ccc21 [Example 780, N-3-isoxazolyl-1-(3-methoxy-3′-(1-methylethoxy)-4-biphenylyl)-2-oxo-1,2-dihydro-6-quinolinesulfonamide] | 26 |
| COc1cc(-c2cccc(OC(F)(F)F)c2)ccc1-n1c(=O)ccc2cc(S(=O)(=O)Nc3ccon3)ccc21 [Example 781, N-3-isoxazolyl-1-(3-methoxy-3′-(trifluoromethoxy)-4-biphenylyl)-2-oxo-1,2-dihydro-6-quinolinesulfonamide] | 10 |
| COc1cc(-c2cccc(OC)c2Cl)ccc1-n1c(=O)ccc2cc(S(=O)(=O)Nc3ccon3)ccc21 [Example 782, 1-(2′-chloro-3,3′-dimethoxy-4-biphenylyl)-N-3-isoxazolyl-2-oxo-1,2-dihydro-6-quinolinesulfonamide] | 87 |
| COc1cc(-c2cccc(C(C)C)c2)ccc1-n1c(=O)ccc2cc(S(=O)(=O)Nc3ccon3)ccc21 [Example 783, N-3-isoxazolyl-1-(3-methoxy-3′-(1-methylethyl)-4-biphenylyl)-2-oxo-1,2-dihydro-6-quinolinesulfonamide] | 9 |
| COc1cc(C)cc(-c2ccc(-n3c(=O)ccc4cc(S(=O)(=O)Nc5ccon5)ccc43)c(OC)c2)c1 [Example 784, 1-(3,3′-dimethoxy-5′-methyl-4-biphenylyl)-N-3-isoxazolyl-2-oxo-1,2-dihydro-6-quinolinesulfonamide] | 20 |
